Results published in patent US20170339955A1, “Substituted N-(tetrazol-5-yl)- and N-(triazol-5-yl)arylcarboxamide compounds and their use as herbicides” (BASF SE, priority 2012, published 2017).

Key:
Type in all cases: in vivo
[1] = system: Abutilon theophrasti (velvetleaf); test: Greenhouse post-emergence treatment of Abutilon theophrasti (velvetleaf); details: application rate 1000 g/ha, scale 0 (no damage) to 100 (complete destruction)
Excerpt: (§1) The culture containers used were plastic flowerpots containing loamy sand with approximately 3.0% of humus as the substrate. The seeds of the test plants were sown separately for each species.
(§2) For the post-emergence treatment, the test plants were first grown to a height of 3 to 15 cm, depending on the plant habit, and only then treated with the active ingredients which had been suspended or emulsified in water. For this purpose, the test plants were either sown directly and grown in the same containers, or they were first grown separately as seedlings and transplanted into the test containers a few days prior to treatment.
(§3) Depending on the species, the plants were kept at 10-25° C. or 20-35° C. The test period extended over 2 to 4 weeks. During this time, the plants were tended, and their response to the individual treatments was evaluated.
(§4) Evaluation was carried out using a scale from 0 to 100. 100 means no emergence of the plants, or complete destruction of at least the aerial moieties, and 0 means no damage, or normal course of growth. A good herbicidal activity is given at values of at least 70 and a very good herbicidal activity is given at values of at least 85.

[2] = system: Amaranthus retroflexus L. (pigweed); test: Greenhouse pre-emergence treatment of Amaranthus retroflexus L. (pigweed); details: application rate 1000 g/ha, scale 0 (no damage) to 100 (no emergence/complete destruction)
Excerpt: as §1
(§5) For the pre-emergence treatment, the active ingredients, which had been suspended or emulsified in water, were applied directly after sowing by means of finely distributing nozzles. The containers were irrigated gently to promote germination and growth and subsequently covered with transparent plastic hoods until the plants had rooted. This cover caused uniform germination of the test plants, unless this has been impaired by the active ingredients.
as §3, §4

[3] = system: Amaranthus retroflexus L. (pigweed); test: Greenhouse post-emergence treatment of Amaranthus retroflexus L. (pigweed); details: application rate 1000 g/ha, scale 0 (no damage) to 100 (complete destruction)
Excerpt: as §1, §2, §3, §4

[4] = system: Abutilon theophrasti (velvetleaf); test: Greenhouse pre-emergence treatment of Abutilon theophrasti (velvetleaf); details: application rate 1000 g/ha, scale 0 (no damage) to 100 (no emergence/complete destruction)
Excerpt: as §1, §5, §3, §4

[5] = system: Echinochloa crus-galli (barnyard grass); test: Greenhouse post-emergence treatment of Echinochloa crus-galli (barnyard grass); details: application rate 1000 g/ha, scale 0 (no damage) to 100 (complete destruction)
Excerpt: as §1, §2, §3, §4

SMILES: Cn1nnnc1NC(=O)c1cc(F)c(Cl)cc1Cl [V.A-5]
- damage [%] [1]: 100%
- damage [%] [2]: 100%
- damage [%] [3]: 100%

SMILES: Cn1ncnc1NC(=O)c1c(F)cc(Cl)c(S(C)(=O)=O)c1Cl [I.A-41, 2,4-dichloro-6-fluoro-3-methylsulfonyl-n-(2-methyl-1,2,4-triazol-3-yl)benzamide]
- damage [%] [1]: 100%
- damage [%] [4]: 95%
- damage [%] [3]: 100%

SMILES: Cn1ncnc1NC(=O)c1c(F)cc(Cl)cc1Cl [I.A-1]
- damage [%] [1]: 100%
- damage [%] [2]: 80%
- damage [%] [3]: 100%

SMILES: Cn1ncnc1NC(=O)c1cc(F)c(Cl)cc1Cl [I.A-5]
- damage [%] [1]: 75%
- damage [%] [5]: 90%
- damage [%] [3]: 85%

SMILES: Cn1nnnc1NC(=O)c1c(F)cc(Cl)c(S(C)(=O)=O)c1Cl [V.A.-41, 2,4-dichloro-6-fluoro-3-methylsulfonyl-n-(1-methyltetrazol-5-yl)benzamide]
- damage [%] [1]: 100%
- damage [%] [2]: 100%
- damage [%] [3]: 100%

SMILES: Cn1ncnc1NC(=O)c1c(F)ccc(Cl)c1Cl [I.A-1441]
- damage [%] [1]: 75%
- damage [%] [2]: 100%
- damage [%] [3]: 100%

SMILES: CSc1c(Cl)cc(F)c(C(=O)Nc2nnnn2C)c1Cl [V.A-1442, 2,4-dichloro-6-fluoro-3-methylsulfanyl-n-(1-methyltetrazol-5-yl)benzamide]
- damage [%] [1]: 100%
- damage [%] [4]: 100%
- damage [%] [3]: 100%
